Assay results reported in PMC11576293, “New series of 4,6-diaryl pyrimidines: facile synthesis and antiproliferative activity as dual EGFR/VEGFR-2 inhibitors” (Frontiers in Chemistry, 2024).

Key:
HT-29 = experiment: Antiproliferative assay (MTT); format: cell-based; settings: Homo sapiens, HT-29 (colon), read-out: Antiproliferative activity IC50 ± SEM, HT-29
Source text: (§1) The MTT test was employed for this investigation ([Hisham et al., 2022]; [El-Sherief et al., 2019]; [Ramadan et al., 2020]). Table 2 presents the four cancer cell lines’ median inhibitory concentration (IC50) and GI50 (average IC50) values.
(§2) The MTT test was employed for this investigation ([Hisham et al., 2022]; [El-Sherief et al., 2019]; [Ramadan et al., 2020]). The IC50 values were derived from dose-response tests. The reported data are derived from at least two independent studies, each comprising three replicates per concentration. See Supplementary Material A1 for more details.
(§3) (in 0.1% DMSO) were added (in 200 μL medium to yield a final concentration of 0.1% v/v) to the wells of plates. A single compound was designated with four wells followed by incubation of plates for 96h at 37°C. After incubation, medium was removed completely from the plates followed by addition of MTT (0.4 mg/mL in medium) to each well and subsequent incubation of plates for 3h. MTT (along with the medium) was removed and DMSO (150μL) was added to each well of the culture plates, followed by vertexing and subsequent measurement of absorbance (at 540 nm) using microplate reader. The data are shown as percentage inhibition of proliferation in comparison with controls containing 0.1% DMSO.
(§4) 4.2.1.2. Assay for antiproliferative effect […]
(§5) (10%) and 1 µg/mL each of aprotinin, leupeptin and pepstatin for 120 min. The purification was performed either at 4 °C or on ice. To record autophosphorylation level, EGFR kinase assay was carried out on the basis of DELFIA/Time-Resolved Fluorometry. The compounds were first
(§6) (1 picture or pasted object on this page, not shown here)

Panc-1 = experiment: Antiproliferative assay (MTT); format: cell-based; settings: Homo sapiens, Panc-1 (pancreatic), read-out: Antiproliferative activity IC50 ± SEM, Panc-1
Source text: as §1, §2, §3, §4, §5, §6

A-549 = experiment: Antiproliferative assay (MTT); format: cell-based; settings: Homo sapiens, A549, A-549 (lung), read-out: Antiproliferative activity IC50 ± SEM, A-549
Source text: as §1, §2, §3, §4, §5, §6

MCF-7 = experiment: Antiproliferative assay (MTT); format: cell-based; settings: Homo sapiens, MCF7, MCF-7 (breast), read-out: Antiproliferative activity IC50 ± SEM, MCF-7
Source text: as §1, §2, §3, §4, §5, §6

[1] = system: four cancer cell lines (A-549, MCF-7, Panc-1, HT-29); experiment: Antiproliferative assay, average over four cancer cell lines; format: cell-based; settings: Homo sapiens; average of the four cancer cell lines; read-out: Average IC50 (GI50)
Source text: Table 2 presents the four cancer cell lines’ median inhibitory concentration (IC50) and GI50 (average IC50) values.
The IC50 values were derived from dose-response tests. The reported data are derived from at least two independent studies, each comprising three replicates per concentration. See Supplementary Material A1 for more details.

MCF7 = experiment: NCI-60 single-dose screen; format: cell-based; settings: Homo sapiens, single dose 10 µM, '-' = no inhibition, read-out: % Growth Inhibition
Protocol: (§7) The National Cancer Institute’s Developmental Therapeutic Program (www.dtp.nci.nih.gov) has tested compounds 9–29 (except compounds 21 and 22) against 60 cancer cell lines from nine types (leukemia, lung, colon, CNS, melanoma, ovarian, renal, prostate, and breast cancer) at a single dose (10 μM) ([El-Sherief et al., 2018]). […] The most sensitive cells included leukemia (SR, K-562, and MOLT-4), lung (NCI-H522, […], and EKVX), breast (MCF-7 and T-47D), colon (HCT-15 and HT-29), and ovarian (NCI/ADR-RES).
(§8) The National Cancer Institute’s Developmental Therapeutic Program (www.dtp.nci.nih.gov) evaluated compounds 9–29 (excluding 21 and 22) against 60 cancer cell lines from nine categories (leukemia, lung, colon, CNS, melanoma, ovarian, renal, prostate, and breast cancer) at a single dose (10 μM) ([El-Sherief et al., 2018]). See Supplementary Material A1 for more details.

HCC-2998 = experiment: NCI-60 single-dose screen; format: cell-based; settings: Homo sapiens, single dose 10 µM, '-' = no inhibition, read-out: % Growth Inhibition
Protocol: as §7, §8

SF-268 = experiment: NCI-60 single-dose screen; format: cell-based; settings: Homo sapiens, single dose 10 µM, '-' = no inhibition, read-out: % Growth Inhibition
Protocol: as §7, §8

HS 578T = experiment: NCI-60 single-dose screen; format: cell-based; settings: Homo sapiens, single dose 10 µM, '-' = no inhibition, read-out: % Growth Inhibition
Protocol: as §7, §8

SK-MEL-5 = experiment: NCI-60 single-dose screen; format: cell-based; settings: Homo sapiens, single dose 10 µM, '-' = no inhibition, read-out: % Growth Inhibition
Protocol: as §7, §8

[2] = Cell viability assay (MTT) on normal cells; format: cell-based; settings: human, MCF-10A normal mammary gland epithelial cells, 4 days incubation
Protocol: This experiment examines the impact of the newly developed compounds 9–29 on normal cell lines to assess their safety level. The vitality of the investigated compounds was assessed using the MCF-10 A cell line, a normal human mammary gland epithelial cell line. Following 4 days of incubation on MCF-10 A cells with each examined compound at a concentration of 50 μM, the vitality of the cells was assessed using the MTT test ([Mahmoud et al., 2022]; [Mekheimer et al., 2022]).
This experiment examines the impact of the newly developed compounds 9–29 on normal cell lines to assess their safety level. The viability of 9–29 was assessed using the MCF-10 A cell line, a normal human mammary gland epithelial cell line. Following 4 days of incubation on MCF-10 A cells with each examined compound at a concentration of 50 μM, the vitality of the cells was assessed using the MTT test ([Mahmoud et al., 2022]; [Mekheimer et al., 2022]). Refer to Supplementary Material A1 for more details. […]
4.2. Biological evaluation
4.2.1. Cytotoxic activity using MTT Assay and evaluation of IC50
MTT assay was carried out to study the effect of compounds on mammary epithelial cells (MCF-10A). The medium in which cells were propagated contained Dulbecco's modified Eagle's medium (DMEM)/ Ham's F-12 medium (1:1) supplemented with epidermal growth factor (20 ng/mL), hydrocortisone (500 ng/mL), insulin (10 μg/mL), 2 mM glutamine and 10% foetal calf serum.
as §3, with “After every 2-3 days, the cells were passaged using trypsin ethylenediamine tetra acetic acid (EDTA). The cells were seeded at a density of 10^4 cells mL-1 in flat-bottomed culture plates containing 96 wells each. After 24 h, medium was removed from the plates and the compounds in (in 0.1%” for “(in 0.1%”, “0.1% DMSO. […]” for “0.1% DMSO.”

SMILES: COc1ccc(-c2cc(-c3ccc(Cl)cc3)nc(SCc3ccccc3)n2)cc1 [Compound 14, 2-(Benzylthio)-4-(4-chlorophenyl)-6-(4-methoxyphenyl)pyrimidine]
- IC50 (HT-29): 28 ± 2 nM
- IC50 (Panc-1): 29 ± 2 nM
- IC50 (A-549): 28 ± 2 nM
- IC50 (MCF-7): 30 ± 2 nM
- melting point: 288 to 290 °C
- IC50 [1]: 29 nM
- inhibition at 10 µM (MCF7): < 0%
- inhibition at 10 µM (HCC-2998): < 0%
- inhibition at 10 µM (SF-268): < 0%
- inhibition at 10 µM (HS 578T): < 0%
- inhibition at 10 µM (SK-MEL-5): 2.06%
- viability at 4 days, 50 µM [2]: 90%

SMILES: COc1ccc(CSc2nc(-c3ccc(Cl)cc3)cc(-c3ccc(OC)cc3)n2)cc1 [Compound 15, 2-(4-Methoxybenzylthio)-4-(4-chlorophenyl)-6-(4-methoxyphenyl)pyrimidine]
- IC50 (HT-29): 80 ± 7 nM
- IC50 (Panc-1): 80 ± 7 nM
- IC50 (A-549): 79 ± 7 nM
- IC50 (MCF-7): 82 ± 7 nM
- melting point: 278 to 280 °C
- IC50 [1]: 80 nM
- inhibition at 10 µM (MCF7): < 0%
- inhibition at 10 µM (HCC-2998): < 0%
- inhibition at 10 µM (SF-268): < 0%
- inhibition at 10 µM (HS 578T): 9.27%
- inhibition at 10 µM (SK-MEL-5): < 0%
- viability at 4 days, 50 µM [2]: 91%

SMILES: COc1ccc(-c2cc(-c3cccc(OC)c3)nc(SC)n2)cc1 [Compound 16, 6-(3-Methoxyphenyl)-4-(4-methoxyphenyl)-2-(methylthio)pyrimidine]
- IC50 (HT-29): 85 ± 8 nM
- IC50 (Panc-1): 85 ± 8 nM
- IC50 (A-549): 86 ± 7 nM
- IC50 (MCF-7): 89 ± 8 nM
- melting point: 213 to 215 °C
- IC50 [1]: 86 nM
- inhibition at 10 µM (MCF7): 11.3%
- inhibition at 10 µM (HCC-2998): < 0%
- inhibition at 10 µM (SF-268): 15.7%
- inhibition at 10 µM (HS 578T): 5.45%
- inhibition at 10 µM (SK-MEL-5): 6.46%
- viability at 4 days, 50 µM [2]: 92%

SMILES: CCSc1nc(-c2ccc(OC)cc2)cc(-c2cccc(OC)c2)n1 [Compound 17, 2-(Ethylthio)-6-(3-methoxyphenyl)-4-(4-methoxyphenyl)pyrimidine]
- IC50 (HT-29): 29 ± 2 nM
- IC50 (Panc-1): 28 ± 2 nM
- IC50 (A-549): 28 ± 2 nM
- IC50 (MCF-7): 30 ± 3 nM
- melting point: 221 to 222 °C
- IC50 [1]: 29 nM
- inhibition at 10 µM (MCF7): 11%
- inhibition at 10 µM (HCC-2998): < 0%
- inhibition at 10 µM (SF-268): < 0%
- inhibition at 10 µM (HS 578T): < 0%
- inhibition at 10 µM (SK-MEL-5): 6.31%
- viability at 4 days, 50 µM [2]: 90%

SMILES: CCCSc1nc(-c2ccc(OC)cc2)cc(-c2cccc(OC)c2)n1 [Compound 18, 6-(3-Methoxyphenyl)-4-(4-methoxyphenyl)-2-(propylthio)pyrimidine]
- IC50 (HT-29): 46 ± 4 nM
- IC50 (Panc-1): 44 ± 4 nM
- IC50 (A-549): 45 ± 4 nM
- IC50 (MCF-7): 46 ± 4 nM
- melting point: 218 to 220 °C
- IC50 [1]: 45 nM
- inhibition at 10 µM (MCF7): 17.3%
- inhibition at 10 µM (HCC-2998): < 0%
- inhibition at 10 µM (SF-268): < 0%
- inhibition at 10 µM (HS 578T): < 0%
- inhibition at 10 µM (SK-MEL-5): 3.1%
- viability at 4 days, 50 µM [2]: 87%

SMILES: COc1ccc(-c2cc(-c3cccc(OC)c3)nc(SC(C)C)n2)cc1 [Compound 19, 2-(Isopropylthio)-6-(3-methoxyphenyl)-4-(4-methoxyphenyl)pyrimidine]
- IC50 (HT-29): 30 ± 2 nM
- IC50 (Panc-1): 30 ± 2 nM
- IC50 (A-549): 29 ± 2 nM
- IC50 (MCF-7): 32 ± 3 nM
- melting point: 235 to 237 °C
- IC50 [1]: 30 nM
- inhibition at 10 µM (MCF7): 11.6%
- inhibition at 10 µM (HCC-2998): < 0%
- inhibition at 10 µM (SF-268): 9.81%
- inhibition at 10 µM (HS 578T): 4.95%
- inhibition at 10 µM (SK-MEL-5): 7.31%
- viability at 4 days, 50 µM [2]: 90%

SMILES: C=CCSc1nc(-c2ccc(OC)cc2)cc(-c2cccc(OC)c2)n1 [Compound 20, 2-(Allylthio)-6-(3-methoxyphenyl)-4-(4-methoxyphenyl)pyrimidine]
- IC50 (HT-29): 72 ± 4 nM
- IC50 (Panc-1): 70 ± 6 nM
- IC50 (A-549): 70 ± 6 nM
- IC50 (MCF-7): 73 ± 6 nM
- melting point: 258 to 260 °C
- IC50 [1]: 71 nM
- inhibition at 10 µM (MCF7): 12.5%
- inhibition at 10 µM (HCC-2998): 2.37%
- inhibition at 10 µM (SF-268): < 0%
- inhibition at 10 µM (HS 578T): < 0%
- inhibition at 10 µM (SK-MEL-5): 1.41%
- viability at 4 days, 50 µM [2]: 90%

SMILES: COc1ccc(-c2cc(-c3ccc(Cl)cc3)nc(SC)n2)cc1OC [Compound 23, 4-(4-Chlorophenyl)-6-(3,4-dimethoxyphenyl)-2-(methylthio)pyrimidine]
- IC50 (HT-29): 48 ± 4 nM
- IC50 (Panc-1): 47 ± 4 nM
- IC50 (A-549): 48 ± 4 nM
- IC50 (MCF-7): 50 ± 4 nM
- melting point: 228 to 229 °C
- IC50 [1]: 48 nM
- inhibition at 10 µM (MCF7): 23.9%
- inhibition at 10 µM (HCC-2998): < 0%
- inhibition at 10 µM (SF-268): 11.5%
- inhibition at 10 µM (HS 578T): 17%
- inhibition at 10 µM (SK-MEL-5): 24.5%
- viability at 4 days, 50 µM [2]: 90%
